From patent US5736376A, “Recombinant endothelin converting enzyme-2 and its use in ECE inhibitor screening” (Board of Regents, The University of Texas System, priority 1995, dated 1998)
Where no end group is shown, it is not given here.

Legend:
[1] = Stability of big and mature endothelin isopeptides with crude membrane proteins, ECE-2 assay conditions (pH 5.6); type: physicochemical
ECE-1 = target: T1, ECE-1 (Bos taurus, UniProt P42891); assay: Protease inhibitor assay of ECE-1, solubilized CHO/ECE-1 membranes, big ET-1 conversion, pH 6.8; type: biochemical, bovine; settings: for inhibition of ECE-1: sensitivity to protease inhibitors, Table 2; for Percent ECE-1 activity remaining with inhibitor (of control): Inhibitor 100 μM, solubilized CHO/ECE-1 membranes, control 100
T1 construct: made in house
T1 sequence (P42891 1-754): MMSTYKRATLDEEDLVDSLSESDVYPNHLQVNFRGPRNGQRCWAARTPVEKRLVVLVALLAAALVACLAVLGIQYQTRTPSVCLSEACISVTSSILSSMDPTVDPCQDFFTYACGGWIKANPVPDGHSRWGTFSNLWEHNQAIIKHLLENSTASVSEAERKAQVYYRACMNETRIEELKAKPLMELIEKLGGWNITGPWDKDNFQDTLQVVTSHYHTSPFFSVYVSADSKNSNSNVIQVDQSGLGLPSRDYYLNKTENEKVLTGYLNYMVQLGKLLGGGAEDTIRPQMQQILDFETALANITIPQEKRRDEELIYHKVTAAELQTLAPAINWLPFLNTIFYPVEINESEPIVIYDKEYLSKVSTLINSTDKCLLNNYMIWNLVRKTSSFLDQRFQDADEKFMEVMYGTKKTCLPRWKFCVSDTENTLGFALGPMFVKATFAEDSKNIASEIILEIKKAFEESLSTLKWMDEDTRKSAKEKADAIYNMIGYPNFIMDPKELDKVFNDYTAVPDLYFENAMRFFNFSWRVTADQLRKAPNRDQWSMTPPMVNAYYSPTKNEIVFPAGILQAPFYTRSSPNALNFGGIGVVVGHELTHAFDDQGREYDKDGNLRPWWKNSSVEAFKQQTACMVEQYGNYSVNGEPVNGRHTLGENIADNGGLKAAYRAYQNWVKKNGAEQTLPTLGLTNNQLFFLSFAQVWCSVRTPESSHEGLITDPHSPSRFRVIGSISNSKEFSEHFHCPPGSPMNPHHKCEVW
Procedure: Solubilized crude membranes were prepared in parallel from CHO/ECE-2 and CHO/ECE-1 cells as described (Xu et al., 1994). For protease inhibitor studies, membranes were prepared without protease inhibitors. Standard reaction mixtures for the ECE-2 assay (50 μl) contained 0.1M 2-[N-morpholino]ethanesulfonic acid (MES) buffer (pH 5.5), 0.5M NaCl, 0.1 μM human big ET-1 and an enzyme fraction. ECE-1 assay reactions contained 0.1M phosphate buffer (pH 6.8) instead of the MES buffer. For the pH profiling and isopeptide selectivity studies, the buffer solution (0.1M) or the substrate (0.1 μM) was substituted as designated. For the inhibitor studies, the reactions were preincubated at 37° C. with protease inhibitor or vehicle for 15 min. Reactions were started by the addition of substrate, and incubated at 37° C. for 30 min in siliconized 0.5-ml microcentrifuge tubes. […] The mixture was then directly assayed for mature ET-1 as described (Suzuki et al., 1989). Duplicate assay wells were used for each enzyme reaction. […] Protein concentrations were determined by the Bradford method (Bio-Rad) using IgG as standard.

ECE-2 = target: T2, ECE-2 (Bos taurus, UniProt P0DPE2); assay: Protease inhibitor assay of ECE-2, solubilized CHO/ECE-2 membranes, big ET-1 conversion, pH 5.5; type: biochemical, bovine; settings: for inhibition of ECE-2: in vitro sensitivity to inhibitors; for Percent of control ECE-2 activity remaining with inhibitor: Inhibitor 100 μM, solubilized CHO/ECE-2 membranes, control 100
T2 construct: solubilized crude membranes or live cells
T2 sequence (P0DPE2 97-883): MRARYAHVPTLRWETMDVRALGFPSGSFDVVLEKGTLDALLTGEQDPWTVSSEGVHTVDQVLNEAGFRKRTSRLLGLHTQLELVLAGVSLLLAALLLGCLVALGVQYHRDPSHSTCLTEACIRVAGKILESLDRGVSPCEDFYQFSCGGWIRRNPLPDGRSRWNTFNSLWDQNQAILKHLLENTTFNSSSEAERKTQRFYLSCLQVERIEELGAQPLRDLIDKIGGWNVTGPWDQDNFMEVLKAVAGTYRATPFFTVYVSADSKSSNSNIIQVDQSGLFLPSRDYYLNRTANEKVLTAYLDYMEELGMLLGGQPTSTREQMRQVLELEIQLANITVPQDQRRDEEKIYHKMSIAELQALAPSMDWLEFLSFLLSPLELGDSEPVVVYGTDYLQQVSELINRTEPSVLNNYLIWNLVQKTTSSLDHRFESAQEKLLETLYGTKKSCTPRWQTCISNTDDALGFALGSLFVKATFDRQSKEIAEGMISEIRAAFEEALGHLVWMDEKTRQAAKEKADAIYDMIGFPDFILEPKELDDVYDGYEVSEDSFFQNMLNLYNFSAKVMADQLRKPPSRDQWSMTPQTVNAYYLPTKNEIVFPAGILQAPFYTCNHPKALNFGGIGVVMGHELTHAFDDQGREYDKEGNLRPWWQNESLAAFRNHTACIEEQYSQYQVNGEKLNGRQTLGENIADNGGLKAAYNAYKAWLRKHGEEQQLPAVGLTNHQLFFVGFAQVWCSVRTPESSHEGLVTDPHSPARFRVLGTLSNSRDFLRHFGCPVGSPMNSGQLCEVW
Procedure: In all subsequent studies, ECE-2 assays were performed at pH 5.5.
Solubilized crude membranes were prepared in parallel from CHO/ECE-2 and CHO/ECE-1 cells as described (Xu et al., 1994). For protease inhibitor studies, membranes were prepared without protease inhibitors. Standard reaction mixtures for the ECE-2 assay (50 μl) contained 0.1M 2-[N-morpholino]ethanesulfonic acid (MES) buffer (pH 5.5), 0.5M NaCl, 0.1 μM human big ET-1 and an enzyme fraction. […] For the inhibitor studies, the reactions were preincubated at 37° C. with protease inhibitor or vehicle for 15 min. Reactions were started by the addition of substrate, and incubated at 37° C. for 30 min in siliconized 0.5-ml microcentrifuge tubes. […] The mixture was then directly assayed for mature ET-1 as described (Suzuki et al., 1989). Duplicate assay wells were used for each enzyme reaction.

Compound | rate of degradation among isopeptides [1] | inhibition of ECE-2 (ECE-2) | further results
ET-2: Synthetic human ET-2 (CSCSSWLDKECVYFCHLDIIW; ends and bridges not checked; cysteine pairing not given here; UniProt P20800 49-69, looked up) | degraded at similar rates |  | 
O=C(O)CNC(=O)C(CS)Cc1ccccc1 (stereo not drawn) [Thiorphan] |  | not inhibited | inhibition of ECE-1 (ECE-1): not inhibited
O=S(=O)(O)c1cc[c]([Hg][Cl])cc1 [pCMS, p-chloromercuriphenylsulphonic acid] |  | augmented the activity of ECE-2 | Percent ECE-1 activity remaining with inhibitor (of control) (ECE-1): 136%; Percent of control ECE-2 activity remaining with inhibitor (ECE-2): 345%
ET-1: Synthetic human ET-1; 21-amino-acid peptide | degraded at similar rates |  | 
N=C(N)c1ccc(CS(=O)(=O)F)cc1 [APMSF, 4-amidinophenylmethylsulphonyl fluoride] |  |  | Percent ECE-1 activity remaining with inhibitor (of control) (ECE-1): 107%; Percent of control ECE-2 activity remaining with inhibitor (ECE-2): 93%
C[C@H](CS)C(=O)N1CCC[C@H]1C(=O)O [Captopril] |  | not inhibited | inhibition of ECE-1 (ECE-1): not inhibited
ET-3: Synthetic human ET-3 | degraded at similar rates |  | 
